Drawing on article doi:10.1101/2024.08.13.607785v1 (biorxiv, 2024), this text covers remaining activity for two molecules.

What all share (test): biochemical
Design in all cases: species or system mixed lysate of K562, MV4-11, THP-1, NCI-H1155

For experiment [1], the target named is Cyclin-dependent-like kinase 5 ; CDK5 ; Q00535 (Homo sapiens, UniProt Q00535).
Experiment [2] concerns the target Cyclin-dependent kinase 16 ; CDK16 ; Q00536 (Homo sapiens, UniProt Q00536).
Experiment [3] concerns the target Glycogen synthase kinase-3 alpha ; GSK3A ; P49840 (Homo sapiens, UniProt P49840).
Experiment [4] deals with Calcium/calmodulin-dependent protein kinase kinase 1 ; CAMKK1 ; Q8N5S9 (Homo sapiens, UniProt Q8N5S9).
For experiment [5], the target named is Cyclin-dependent kinase 9 ; CDK9 ; P50750 (Homo sapiens, UniProt P50750).
Experiment [6] has as its target Cyclin-dependent kinase 12 ; CDK12 ; Q9NYV4 (Homo sapiens, UniProt Q9NYV4).
Experiment [7] has as its target Epithelial discoidin domain-containing receptor 1 ; DDR1 ; Q08345 (Homo sapiens, UniProt Q08345).
Experiment [8] deals with T1, Interleukin-1 receptor-associated kinase 3 ; IRAK3 ; Q9Y616 (Homo sapiens, UniProt Q9Y616).
T1 sequence (Q9Y616 1-596): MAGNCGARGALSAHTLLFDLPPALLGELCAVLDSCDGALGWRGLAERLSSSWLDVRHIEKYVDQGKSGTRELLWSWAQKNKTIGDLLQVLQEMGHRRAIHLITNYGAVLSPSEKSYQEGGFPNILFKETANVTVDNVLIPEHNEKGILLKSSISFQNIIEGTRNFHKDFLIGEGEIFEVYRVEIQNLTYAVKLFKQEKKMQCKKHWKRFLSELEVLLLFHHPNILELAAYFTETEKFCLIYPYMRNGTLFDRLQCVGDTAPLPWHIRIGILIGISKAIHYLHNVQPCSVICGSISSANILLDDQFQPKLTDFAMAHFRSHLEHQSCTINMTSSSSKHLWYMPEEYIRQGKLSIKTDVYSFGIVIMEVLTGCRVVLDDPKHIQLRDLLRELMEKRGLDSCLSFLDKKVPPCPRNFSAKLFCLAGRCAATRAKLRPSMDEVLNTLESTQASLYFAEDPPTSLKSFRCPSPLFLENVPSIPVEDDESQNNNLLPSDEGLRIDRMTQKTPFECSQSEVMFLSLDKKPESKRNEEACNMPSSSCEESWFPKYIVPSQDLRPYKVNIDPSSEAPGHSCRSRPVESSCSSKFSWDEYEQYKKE

For experiment [9], the target named is Non-receptor tyrosine-protein kinase TYK2 ; TYK2 ; P29597 (Homo sapiens, UniProt P29597).
Experiment [10] has as its target Cyclin-dependent kinase 4 ; CDK4 ; P11802 (Homo sapiens, UniProt P11802).
Experiment [11] has as its target Isoform 2 of Glycogen synthase kinase-3 beta ; GSK3B ; P49841-2 (Homo sapiens, UniProt P49841).
The target in experiment [12] is Cyclin-dependent kinase 1 ; CDK1 ; P06493 (Homo sapiens, UniProt P06493).
The mark [13] stands for this setting: read-out: BAY-1251152 (10 µM) / %Intensity relative to DMSO.
Where [14] appears, read: read-out: BAY-1143572 (10 µM) / %Intensity relative to DMSO.

Structures are written as SMILES. Read-outs that look alike come from different tables or passages of the source.

Non-receptor tyrosine-protein kinase TYK2 ; TYK2 ; P29597, sequence (P29597 whole entry): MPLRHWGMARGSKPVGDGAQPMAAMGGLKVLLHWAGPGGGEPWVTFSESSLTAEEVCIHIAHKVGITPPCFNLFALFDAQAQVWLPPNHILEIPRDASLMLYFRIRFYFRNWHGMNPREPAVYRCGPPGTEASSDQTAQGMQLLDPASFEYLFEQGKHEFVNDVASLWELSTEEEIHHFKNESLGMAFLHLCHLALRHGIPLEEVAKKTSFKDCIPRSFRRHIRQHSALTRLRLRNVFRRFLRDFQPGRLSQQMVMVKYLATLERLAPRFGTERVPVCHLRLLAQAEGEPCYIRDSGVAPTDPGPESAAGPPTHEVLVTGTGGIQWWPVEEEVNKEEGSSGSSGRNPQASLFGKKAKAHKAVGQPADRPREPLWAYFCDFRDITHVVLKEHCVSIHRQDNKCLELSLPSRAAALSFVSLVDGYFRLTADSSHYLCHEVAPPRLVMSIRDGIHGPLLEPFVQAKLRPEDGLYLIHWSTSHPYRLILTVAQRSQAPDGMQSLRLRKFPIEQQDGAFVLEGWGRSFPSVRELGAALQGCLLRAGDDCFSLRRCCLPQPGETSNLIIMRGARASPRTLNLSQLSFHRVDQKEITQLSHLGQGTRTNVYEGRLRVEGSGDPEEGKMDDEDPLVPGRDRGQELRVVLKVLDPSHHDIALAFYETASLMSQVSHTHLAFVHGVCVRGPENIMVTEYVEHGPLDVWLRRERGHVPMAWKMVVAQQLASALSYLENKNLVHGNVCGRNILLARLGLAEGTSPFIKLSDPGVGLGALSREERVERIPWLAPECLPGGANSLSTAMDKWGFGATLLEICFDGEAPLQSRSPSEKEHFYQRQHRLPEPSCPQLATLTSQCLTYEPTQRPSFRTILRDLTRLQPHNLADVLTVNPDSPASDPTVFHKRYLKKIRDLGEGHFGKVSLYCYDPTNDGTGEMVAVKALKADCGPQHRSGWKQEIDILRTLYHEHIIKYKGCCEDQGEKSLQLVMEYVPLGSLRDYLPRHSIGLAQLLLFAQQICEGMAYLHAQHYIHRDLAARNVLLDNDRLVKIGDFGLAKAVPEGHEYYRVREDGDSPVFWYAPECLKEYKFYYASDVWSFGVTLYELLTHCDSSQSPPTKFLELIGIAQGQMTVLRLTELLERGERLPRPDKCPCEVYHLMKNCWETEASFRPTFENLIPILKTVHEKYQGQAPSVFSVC
Cyclin-dependent kinase 9 ; CDK9 ; P50750, sequence (P50750 whole entry, one chain of several): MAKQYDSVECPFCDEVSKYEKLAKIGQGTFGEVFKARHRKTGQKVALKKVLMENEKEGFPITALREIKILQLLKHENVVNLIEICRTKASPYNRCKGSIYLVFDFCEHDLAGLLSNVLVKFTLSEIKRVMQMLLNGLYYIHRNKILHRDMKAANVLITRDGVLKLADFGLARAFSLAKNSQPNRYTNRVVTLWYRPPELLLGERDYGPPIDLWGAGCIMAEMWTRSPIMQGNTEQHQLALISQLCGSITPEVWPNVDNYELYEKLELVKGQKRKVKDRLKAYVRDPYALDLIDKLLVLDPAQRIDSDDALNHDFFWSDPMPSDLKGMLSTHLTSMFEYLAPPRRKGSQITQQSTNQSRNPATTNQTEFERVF
Cyclin-dependent-like kinase 5 ; CDK5 ; Q00535, sequence (Q00535 whole entry, one chain of several): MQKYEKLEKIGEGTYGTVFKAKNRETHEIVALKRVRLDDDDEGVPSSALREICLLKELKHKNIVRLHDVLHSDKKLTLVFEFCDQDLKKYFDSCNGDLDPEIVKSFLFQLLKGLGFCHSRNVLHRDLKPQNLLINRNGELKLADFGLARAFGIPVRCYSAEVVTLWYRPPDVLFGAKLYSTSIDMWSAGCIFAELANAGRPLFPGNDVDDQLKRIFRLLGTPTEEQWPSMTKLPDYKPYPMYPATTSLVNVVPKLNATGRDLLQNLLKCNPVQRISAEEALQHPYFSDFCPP
Cyclin-dependent kinase 4 ; CDK4 ; P11802, sequence (P11802 whole entry, canonical isoform, one chain of several): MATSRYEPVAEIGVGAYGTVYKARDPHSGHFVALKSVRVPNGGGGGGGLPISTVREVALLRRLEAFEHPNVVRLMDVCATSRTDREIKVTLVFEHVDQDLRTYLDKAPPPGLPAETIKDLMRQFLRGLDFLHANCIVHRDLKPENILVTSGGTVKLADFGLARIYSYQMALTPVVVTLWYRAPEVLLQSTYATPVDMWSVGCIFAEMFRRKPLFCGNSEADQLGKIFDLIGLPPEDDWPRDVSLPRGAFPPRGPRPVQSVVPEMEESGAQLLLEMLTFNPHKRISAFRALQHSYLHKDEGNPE
Cyclin-dependent kinase 1 ; CDK1 ; P06493, sequence (P06493 whole entry, one chain of several): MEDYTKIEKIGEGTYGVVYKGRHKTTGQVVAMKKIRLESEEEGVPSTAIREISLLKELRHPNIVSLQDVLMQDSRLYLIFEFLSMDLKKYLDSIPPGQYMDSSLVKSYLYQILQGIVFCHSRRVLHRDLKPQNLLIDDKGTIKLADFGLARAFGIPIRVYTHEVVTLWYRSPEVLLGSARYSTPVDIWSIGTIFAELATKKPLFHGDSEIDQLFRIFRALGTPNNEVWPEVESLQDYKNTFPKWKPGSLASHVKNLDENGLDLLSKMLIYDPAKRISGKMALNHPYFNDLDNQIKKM
Glycogen synthase kinase-3 alpha ; GSK3A ; P49840, sequence (P49840 whole entry): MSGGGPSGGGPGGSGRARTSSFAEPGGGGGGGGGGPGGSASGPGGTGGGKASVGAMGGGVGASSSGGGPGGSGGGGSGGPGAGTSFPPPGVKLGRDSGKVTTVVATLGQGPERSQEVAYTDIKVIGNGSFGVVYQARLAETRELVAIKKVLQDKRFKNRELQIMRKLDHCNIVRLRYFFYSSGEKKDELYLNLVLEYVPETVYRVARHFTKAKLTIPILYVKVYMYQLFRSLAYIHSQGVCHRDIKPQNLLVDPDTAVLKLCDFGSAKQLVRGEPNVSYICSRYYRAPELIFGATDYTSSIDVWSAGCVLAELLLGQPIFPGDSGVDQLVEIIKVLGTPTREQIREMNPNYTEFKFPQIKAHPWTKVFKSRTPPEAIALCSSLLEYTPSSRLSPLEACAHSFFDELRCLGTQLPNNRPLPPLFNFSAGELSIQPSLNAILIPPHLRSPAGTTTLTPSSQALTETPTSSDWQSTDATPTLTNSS
Cyclin-dependent kinase 12 ; CDK12 ; Q9NYV4, sequence (Q9NYV4 whole entry, the tested form may be a part, one chain of several): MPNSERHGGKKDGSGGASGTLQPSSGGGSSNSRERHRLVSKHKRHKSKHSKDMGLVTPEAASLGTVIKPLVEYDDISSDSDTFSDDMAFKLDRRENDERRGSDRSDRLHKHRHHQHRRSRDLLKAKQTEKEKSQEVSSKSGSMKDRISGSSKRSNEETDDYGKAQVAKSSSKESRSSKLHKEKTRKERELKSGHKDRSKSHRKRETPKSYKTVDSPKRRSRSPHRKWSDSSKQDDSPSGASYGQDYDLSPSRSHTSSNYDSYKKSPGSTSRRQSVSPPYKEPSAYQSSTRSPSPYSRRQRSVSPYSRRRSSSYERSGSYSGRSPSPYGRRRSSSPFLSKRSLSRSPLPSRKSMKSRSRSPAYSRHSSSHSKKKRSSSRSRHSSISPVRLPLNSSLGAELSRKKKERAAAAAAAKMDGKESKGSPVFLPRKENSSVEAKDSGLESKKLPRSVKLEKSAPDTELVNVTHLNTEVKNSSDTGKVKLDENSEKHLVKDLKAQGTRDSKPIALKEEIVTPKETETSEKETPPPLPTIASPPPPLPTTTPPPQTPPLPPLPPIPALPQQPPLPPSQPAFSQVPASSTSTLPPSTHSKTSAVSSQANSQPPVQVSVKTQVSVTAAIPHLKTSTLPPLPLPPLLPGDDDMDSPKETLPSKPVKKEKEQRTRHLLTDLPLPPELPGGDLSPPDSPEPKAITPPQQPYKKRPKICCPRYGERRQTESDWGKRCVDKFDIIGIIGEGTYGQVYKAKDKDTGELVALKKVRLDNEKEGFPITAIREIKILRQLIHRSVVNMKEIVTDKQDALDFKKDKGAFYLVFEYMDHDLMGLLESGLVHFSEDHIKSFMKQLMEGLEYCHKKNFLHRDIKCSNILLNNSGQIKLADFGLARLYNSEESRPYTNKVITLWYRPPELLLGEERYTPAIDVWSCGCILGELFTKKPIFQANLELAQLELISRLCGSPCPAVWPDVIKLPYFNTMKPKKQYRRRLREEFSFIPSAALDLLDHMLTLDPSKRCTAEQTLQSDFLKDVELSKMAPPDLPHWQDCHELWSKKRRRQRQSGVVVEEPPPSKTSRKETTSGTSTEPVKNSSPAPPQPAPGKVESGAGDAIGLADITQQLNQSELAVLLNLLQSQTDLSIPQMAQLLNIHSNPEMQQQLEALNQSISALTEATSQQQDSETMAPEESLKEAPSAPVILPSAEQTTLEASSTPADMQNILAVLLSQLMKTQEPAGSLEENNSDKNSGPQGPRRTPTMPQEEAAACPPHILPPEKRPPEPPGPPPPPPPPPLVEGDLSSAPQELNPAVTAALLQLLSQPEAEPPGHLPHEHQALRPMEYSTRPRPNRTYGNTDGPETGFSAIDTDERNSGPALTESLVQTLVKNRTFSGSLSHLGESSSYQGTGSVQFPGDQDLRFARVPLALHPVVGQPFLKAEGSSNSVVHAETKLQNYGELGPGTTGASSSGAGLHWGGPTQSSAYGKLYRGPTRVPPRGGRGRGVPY
Calcium/calmodulin-dependent protein kinase kinase 1 ; CAMKK1 ; Q8N5S9, sequence (Q8N5S9 whole entry, one chain of several): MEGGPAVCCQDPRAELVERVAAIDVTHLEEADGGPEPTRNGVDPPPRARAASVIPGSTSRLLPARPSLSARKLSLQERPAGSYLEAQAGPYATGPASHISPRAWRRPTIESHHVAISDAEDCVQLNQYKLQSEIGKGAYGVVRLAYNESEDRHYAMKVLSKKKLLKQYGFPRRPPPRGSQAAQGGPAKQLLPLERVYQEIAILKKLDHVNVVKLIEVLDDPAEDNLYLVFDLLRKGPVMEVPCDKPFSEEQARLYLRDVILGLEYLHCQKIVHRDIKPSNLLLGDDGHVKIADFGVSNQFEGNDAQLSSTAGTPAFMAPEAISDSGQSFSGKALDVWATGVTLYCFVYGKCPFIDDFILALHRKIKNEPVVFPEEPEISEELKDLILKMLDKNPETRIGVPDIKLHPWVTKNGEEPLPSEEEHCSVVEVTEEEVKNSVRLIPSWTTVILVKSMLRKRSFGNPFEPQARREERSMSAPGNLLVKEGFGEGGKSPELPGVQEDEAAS

For the molecule `COc1cc(F)ccc1-c1cc(Nc2cc(CS(C)(=N)=O)ccn2)ncc1F` (stereo not drawn) [BAY-1251152], the remaining activity at 10 µM in experiment [1] (setting [13]) is 84.7%; in experiment [2] (setting [13]), 25.7%; in experiment [3] (setting [13]) it was 5.28%; in experiment [4] (setting [13]), 10.4%; in [5] (setting [13]) it was 2.79%; in experiment [6] (setting [13]) it was 37.5%. Also, the remaining activity at 10 µM in experiment [7] (setting [13]) came to 48.9%; in experiment [8] (setting [13]), 86.2%; in experiment [9] (setting [13]), 89.6%; in experiment [10] (setting [13]), 121%; in [11] (setting [13]), 11.9%; in experiment [12] (setting [13]), 89.7%.
For `COc1cc(F)ccc1-c1ncnc(Nc2cccc(C[S@](C)(=N)=O)c2)n1` [BAY-1143572], the remaining activity at 10 µM in [1] (setting [14]) came to 83.6%; in experiment [2] (setting [14]), 58.1%; in [3] (setting [14]) it was 3.48%; in experiment [4] (setting [14]) it was 15.4%; in experiment [5] (setting [14]), 3.85%; in experiment [6] (setting [14]), 64.7%. The remaining activity at 10 µM in experiment [7] (setting [14]) amounted to 56%; in experiment [8] (setting [14]) it was 24%; in [9] (setting [14]) it was 27.1%; in experiment [10] (setting [14]), 133%; in [11] (setting [14]), 7.95%; in [12] (setting [14]), 99.5%.
